Assays:
Format in all cases: in vivo
[1] = test system: barnyardgrass (Echinochloa crusgalli); assay: Test B flooded paddy test, visual plant response rating 0-100; settings: 250 g ai/ha, Flood, applied to paddy water, evaluated after 13 days
Procedure, shortened: (§1)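 2-leaf plants; flood 3 cm over soil; compound dosed into paddy water; depth kept constant; greenhouse 13 d; visual scoring vs controls. Dash = no result.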

[2] = test system: sedge, umbrella (small-flower umbrella sedge, Cyperus difformis); assay: as above; settings: 250 g ai/ha, Flood, applied to paddy water, evaluated after 13 days
Procedure, shortened: as §1

[3] = test system: ducksalad (Heteranthera limosa); assay: as above; settings: 250 g ai/ha, Flood, applied to paddy water, evaluated after 13 days
Procedure, shortened: as §1

rice (Oryza sativa) = assay: as above; settings: 250 g ai/ha, Flood, applied to paddy water, evaluated after 13 days
Procedure, shortened: as §1

[4] = test system: blackgrass (Alopecurus myosuroides); assay: Test A preemergence soil spray, visual injury rating 0-100; settings: 10 days
Procedure, shortened: (§2)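 Grow plants in loam soil blended with sand. Apply formulated compound (non-phytotoxic solvent, surfactant) as a directed soil spray before emergence, or to plants at the one- to two-leaf stage after emergence. Hold in greenhouse 10 days, then rate injury visually versus untreated controls on a 0-100 scale.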

[5] = test system: ryegrass, Italian (italian ryegrass, Lolium multiflorum); assay: as above; settings: 10 days
Procedure, shortened: as §2

[6] = test system: barnyardgrass (Echinochloa crus-galli); assay: as above; settings: 10 days
Procedure, shortened: as §2

[7] = test system: ragweed (common ragweed, Ambrosia artemisiifolia); assay: as above; settings: 10 days
Procedure, shortened: as §2

corn (Zea mays) [8] = assay: as above; settings: 10 days
Procedure, shortened: as §2

soybean (Glycine max) [9] = assay: as above; settings: 10 days
Procedure, shortened: as §2

[10] = test system: green foxtail (Setaria viridis); assay: as above; settings: 10 days
Procedure, shortened: as §2

[11] = test system: oat, wild (wild oat, Avena fatua); assay: as above; settings: 10 days
Procedure, shortened: as §2

[12] = test system: wheat (Triticum aestivum); assay: as above; settings: 10 days
Procedure, shortened: as §2

[13] = test system: palmer (palmer amaranth, palmer pigweed, Amaranthus palmeri); assay: as above; settings: 10 days
Procedure, shortened: as §2

kochia (Bassia scoparia) [14] = assay: as above; settings: 10 days
Procedure, shortened: as §2

[15] = test system: galium (catchweed bedstraw, Galium aparine); assay: Test A postemergence application, visual injury rating 0-100
Procedure, shortened: as §2

[16] = test system: blackgrass (Alopecurus myosuroides); assay: as above
Procedure, shortened: as §2

[17] = test system: ryegrass, Italian (italian ryegrass, Lolium multiflorum); assay: as above
Procedure, shortened: as §2

[18] = test system: barnyardgrass (Echinochloa crus-galli); assay: as above
Procedure, shortened: as §2

[19] = test system: ragweed (common ragweed, Ambrosia artemisiifolia); assay: as above
Procedure, shortened: as §2

corn (Zea mays) [20] = assay: as above
Procedure, shortened: as §2

soybean (Glycine max) [21] = assay: as above
Procedure, shortened: as §2

[22] = test system: green foxtail (Setaria viridis); assay: as above
Procedure, shortened: as §2

[23] = test system: oat, wild (wild oat, Avena fatua); assay: as above
Procedure, shortened: as §2

[24] = test system: horseweed (Erigeron canadensis); assay: as above
Procedure, shortened: as §2

[25] = test system: wheat (Triticum aestivum); assay: as above
Procedure, shortened: as §2

[26] = test system: palmer (palmer amaranth, palmer pigweed, Amaranthus palmeri); assay: as above
Procedure, shortened: as §2

kochia (Bassia scoparia) [27] = assay: as above
Procedure, shortened: as §2

[28] = 62 g ai/ha, 0 = no effect, 100 = complete control
[29] = 62 g ai/ha, postemergence, 10 days, 0 = no effect, 100 = complete control
[30] = Postemergence, 16 g ai/ha, greenhouse 10 days, 0 no effect, 100 complete control

COC(=O)C1C=CC(NC(=O)C2(C)CN(c3cc(F)cc(F)c3)C(=O)O2)C1 (stereo not shown) [Compound 92]
Plant response rating, Barnyardgrass (0 to 100 scale, 0 is no effect and 100 is complete control) [1]: 0
Plant response rating, Sedge, Umbrella (0 to 100 scale, 0 is no effect and 100 is complete control) [2]: 0
Plant response rating, Ducksalad (0 to 100 scale, 0 is no effect and 100 is complete control) [3]: 0
Plant response rating, Rice (0 to 100 scale, 0 is no effect and 100 is complete control) (rice (Oryza sativa)): 0
Blackgrass plant response rating ([4]; 16 g ai/ha, 0 to 100 scale): 0
Blackgrass plant response rating (0-100) [4, 28]: 0
Ryegrass, Italian plant response rating ([5]; 16 g ai/ha, 0 to 100 scale): 0
Ryegrass, Italian plant response rating (0-100) [5, 28]: 0
Barnyardgrass plant response rating ([6]; 16 g ai/ha, 0 to 100 scale): 0
Barnyardgrass plant response rating (0-100) [6, 28]: 0
Ragweed plant response rating ([7]; 16 g ai/ha, 0 to 100 scale): 0
Ragweed plant response rating (0-100) [7, 28]: 0
Corn plant response rating (corn (Zea mays) [8]; 16 g ai/ha, 0 to 100 scale): 0
Corn plant response rating (0-100) (corn (Zea mays) [8]; [28]): 0
Soybean plant response rating (soybean (Glycine max) [9]; 16 g ai/ha, 0 to 100 scale): 0
Soybean plant response rating (0-100) (soybean (Glycine max) [9]; [28]): 0
Foxtail, Green plant response rating ([10]; 16 g ai/ha, 0 to 100 scale): 0
Foxtail, Green plant response rating (0-100) [10, 28]: 0
Oat, Wild plant response rating ([11]; 16 g ai/ha, 0 to 100 scale): 0
Oat, Wild plant response rating (0-100) [11, 28]: 0
Wheat plant response rating ([12]; 16 g ai/ha, 0 to 100 scale): 0
Wheat plant response rating (0-100) [12, 28]: 0
Pigweed, Palmer plant response rating ([13]; 16 g ai/ha, 0 to 100 scale): 0
Pigweed, Palmer plant response rating (0-100) [13, 28]: 70
Kochia plant response rating (kochia (Bassia scoparia) [14]; 16 g ai/ha, 0 to 100 scale): 0
Kochia plant response rating (0-100) (kochia (Bassia scoparia) [14]; [28]): 0
Galium plant response rating (0-100) [15, 29]: 0
Galium plant response rating (0 to 100 scale) [15, 30]: 0
Blackgrass plant response rating (0-100) [16, 29]: 0
Blackgrass plant response rating (0 to 100 scale) [16, 30]: 0
Ryegrass, Italian plant response rating (0-100) [17, 29]: 0
Ryegrass, Italian plant response rating (0 to 100 scale) [17, 30]: 0
Barnyardgrass plant response rating (0-100) [18, 29]: 0
Barnyardgrass plant response rating (0 to 100 scale) [18, 30]: 0
Ragweed plant response rating (0-100) [19, 29]: 20
Ragweed plant response rating (0 to 100 scale) [19, 30]: 0
Corn plant response rating (0-100) (corn (Zea mays) [20]; [29]): 0
Corn plant response rating (0 to 100 scale) (corn (Zea mays) [20]; [30]): 0
Soybean plant response rating (0-100) (soybean (Glycine max) [21]; [29]): 0
Soybean plant response rating (0 to 100 scale) (soybean (Glycine max) [21]; [30]): 0
Foxtail, Green plant response rating (0-100) [22, 29]: 0
Foxtail, Green plant response rating (0 to 100 scale) [22, 30]: 0
Oat, Wild plant response rating (0-100) [23, 29]: 0
Oat, Wild plant response rating (0 to 100 scale) [23, 30]: 0
Horseweed plant response rating (0-100) [24, 29]: 0
Horseweed plant response rating (0 to 100 scale) [24, 30]: 0
Wheat plant response rating (0-100) [25, 29]: 0
Wheat plant response rating (0 to 100 scale) [25, 30]: 0
Pigweed, Palmer plant response rating (0-100) [26, 29]: 0
Pigweed, Palmer plant response rating (0 to 100 scale) [26, 30]: 0
Kochia plant response rating (0-100) (kochia (Bassia scoparia) [27]; [29]): 0
Kochia plant response rating (0 to 100 scale) (kochia (Bassia scoparia) [27]; [30]): 0

From US20260285850A1, “SUBSTITUTED OXAZOLIDINONES AND IMIDAZOLINONES AS HERBICIDES” (FMC CORPORATION, priority 2023, published 2026)
